Results as given in the NIST ThermoML archive (doi:10.1021/je0340809).
± gives the expanded uncertainty stated by the source.

Assay: xn = mol fraction of the nth substance listed
Conditions: 101.3 kPa, Liquid

O=C1CCCN1 [2-pyrrolidinone] + O
Conditions	mass density [kg/m3]	speed of sound [m/s]	viscosity [mPa·s]
298.15 K, x2 = 0.0549	1106.53 ± 1.2	1637.8 ± 6.6	13.02 ± 0.25
298.15 K, x2 = 0.1506	1105.77 ± 1.2	1641.1 ± 6.6	12.29 ± 0.24
298.15 K, x2 = 0.2552	1104.43 ± 1.2	1662 ± 6.7	11.77 ± 0.23
298.15 K, x2 = 0.35	1102.41 ± 1.1	1691.1 ± 6.8	11.32 ± 0.22
298.15 K, x2 = 0.4496	1099.53 ± 1.1	1711.7 ± 6.9	10.63 ± 0.21
298.15 K, x2 = 0.5	1097.71 ± 1.1	1717.9 ± 6.9	10.13 ± 0.2
298.15 K, x2 = 0.5566	1095.2 ± 1.1	1723.5 ± 6.9	9.408 ± 0.19
298.15 K, x2 = 0.6422	1089.78 ± 1.1	1728.3 ± 6.9	8.014 ± 0.16
298.15 K, x2 = 0.7532	1077.07 ± 0.98	1730.9 ± 6.9	5.772 ± 0.13
298.15 K, x2 = 0.8516	1056.03 ± 0.85	1715.4 ± 6.9	3.645 ± 0.084
298.15 K, x2 = 0.8714	1050.24 ± 0.81	1704.6 ± 6.8	3.231 ± 0.075
298.15 K, x2 = 0.8856	1045.71 ± 0.79	1694.1 ± 6.8	2.94 ± 0.068
298.15 K, x2 = 0.9	1040.8 ± 0.76	1681 ± 6.8	2.651 ± 0.062
298.15 K, x2 = 0.9249	1031.48 ± 0.7	1650.9 ± 6.7	2.171 ± 0.051
298.15 K, x2 = 0.9369	1026.61 ± 0.67	1632.7 ± 6.6	1.948 ± 0.046
298.15 K, x2 = 0.9526	1019.88 ± 0.62	1605.5 ± 6.5	1.667 ± 0.04
298.15 K, x2 = 0.9651	1014.21 ± 0.59	1580.7 ± 6.4	1.451 ± 0.035
298.15 K, x2 = 0.9748	1009.64 ± 0.56	1559.8 ± 6.4	1.29 ± 0.032
298.15 K, x2 = 0.9906	1001.87 ± 0.51	1522.6 ± 6.3	1.036 ± 0.026
308.15 K, x2 = 0.0549	1098.69 ± 1.1	1609.2 ± 6.5	8.624 ± 0.18
308.15 K, x2 = 0.1506	1097.66 ± 1.1	1618.7 ± 6.6	8.126 ± 0.17
308.15 K, x2 = 0.2552	1095.98 ± 1.1	1635.9 ± 6.6	7.761 ± 0.16
308.15 K, x2 = 0.35	1093.81 ± 1.1	1657.3 ± 6.7	7.452 ± 0.16
308.15 K, x2 = 0.4496	1090.94 ± 1.1	1679 ± 6.8	6.988 ± 0.15
308.15 K, x2 = 0.5	1089.17 ± 1.1	1688.1 ± 6.8	6.657 ± 0.14
308.15 K, x2 = 0.5566	1086.76 ± 1	1696.7 ± 6.8	6.188 ± 0.14
308.15 K, x2 = 0.6422	1081.57 ± 1	1706.4 ± 6.8	5.289 ± 0.12
308.15 K, x2 = 0.7532	1069.46 ± 0.93	1711.6 ± 6.9	3.853 ± 0.09
308.15 K, x2 = 0.8516	1049.57 ± 0.81	1695.1 ± 6.8	2.489 ± 0.059
308.15 K, x2 = 0.8714	1044.11 ± 0.78	1686.1 ± 6.8	2.224 ± 0.053
308.15 K, x2 = 0.8856	1039.85 ± 0.75	1677.9 ± 6.8	2.038 ± 0.049
308.15 K, x2 = 0.9	1035.22 ± 0.72	1667.7 ± 6.7	1.852 ± 0.045
308.15 K, x2 = 0.9249	1026.46 ± 0.67	1645 ± 6.6	1.544 ± 0.038
308.15 K, x2 = 0.9369	1021.88 ± 0.64	1631.3 ± 6.6	1.401 ± 0.034
308.15 K, x2 = 0.9526	1015.55 ± 0.6	1610.1 ± 6.5	1.22 ± 0.03
308.15 K, x2 = 0.9651	1010.22 ± 0.56	1590.4 ± 6.5	1.082 ± 0.027
308.15 K, x2 = 0.9748	1005.91 ± 0.54	1573.1 ± 6.4	0.977 ± 0.025
308.15 K, x2 = 0.9906	995.75 ± 5	1540.9 ± 6.3	0.812 ± 0.021
318.15 K, x2 = 0.0549	1090.54 ± 1.1	1570 ± 6.4	6.104 ± 0.13
318.15 K, x2 = 0.1506	1089.51 ± 1.1	1576.7 ± 6.4	5.778 ± 0.13
318.15 K, x2 = 0.2552	1087.87 ± 1.1	1589.9 ± 6.5	5.543 ± 0.12
318.15 K, x2 = 0.35	1085.69 ± 1	–	5.344 ± 0.12
318.15 K, x2 = 0.4496	1082.75 ± 1	–	5.034 ± 0.11
318.15 K, x2 = 0.5	1080.94 ± 1	–	4.807 ± 0.11
318.15 K, x2 = 0.5566	1078.51 ± 0.99	1650.3 ± 6.7	4.48 ± 0.1
318.15 K, x2 = 0.6422	1073.38 ± 0.96	1663.9 ± 6.7	3.845 ± 0.088
318.15 K, x2 = 0.7532	1061.72 ± 0.89	1678.2 ± 6.8	2.823 ± 0.066
318.15 K, x2 = 0.8516	1042.81 ± 0.77	1675 ± 6.7	1.852 ± 0.044
318.15 K, x2 = 0.8714	1037.63 ± 0.73	1669.5 ± 6.7	1.663 ± 0.04
318.15 K, x2 = 0.8856	1033.59 ± 0.71	1664 ± 6.7	1.53 ± 0.037
318.15 K, x2 = 0.9	1029.21 ± 0.68	1656.8 ± 6.7	1.398 ± 0.034
318.15 K, x2 = 0.9249	1020.9 ± 0.63	1639.6 ± 6.6	1.179 ± 0.029
318.15 K, x2 = 0.9369	1016.57 ± 0.6	1628.8 ± 6.6	1.078 ± 0.027
318.15 K, x2 = 0.9526	1010.57 ± 0.56	1611.8 ± 6.5	0.95 ± 0.024
318.15 K, x2 = 0.9651	1005.52 ± 0.53	1595.5 ± 6.5	0.851 ± 0.022
318.15 K, x2 = 0.9748	1001.44 ± 0.51	1581.1 ± 6.4	0.778 ± 0.02
318.15 K, x2 = 0.9906	995.2 ± 0.53	1553.7 ± 6.4	0.662 ± 0.018
328.15 K, x2 = 0.0549	1082.33 ± 1	1556 ± 6.4	4.562 ± 0.1
328.15 K, x2 = 0.1506	1081.2 ± 1	1562.4 ± 6.4	4.323 ± 0.098
328.15 K, x2 = 0.2552	1079.48 ± 1	1574.8 ± 6.4	4.147 ± 0.094
328.15 K, x2 = 0.35	1077.27 ± 0.98	1592.4 ± 6.5	4 ± 0.091
328.15 K, x2 = 0.4496	1074.29 ± 0.97	1612.3 ± 6.6	3.772 ± 0.086
328.15 K, x2 = 0.5	1072.48 ± 0.95	1621.7 ± 6.6	3.605 ± 0.083
328.15 K, x2 = 0.5566	1070.03 ± 0.94	1631.3 ± 6.6	3.364 ± 0.077
328.15 K, x2 = 0.6422	1064.97 ± 0.91	1644.8 ± 6.7	2.895 ± 0.067
328.15 K, x2 = 0.7532	1053.71 ± 0.84	1659.9 ± 6.7	2.143 ± 0.05
328.15 K, x2 = 0.8516	1035.74 ± 0.72	1660.2 ± 6.7	1.427 ± 0.035
328.15 K, x2 = 0.8714	1030.84 ± 0.69	1656.2 ± 6.7	1.288 ± 0.032
328.15 K, x2 = 0.8856	1027.01 ± 0.67	1652 ± 6.7	1.191 ± 0.029
328.15 K, x2 = 0.9	1022.85 ± 0.64	1646.3 ± 6.7	1.095 ± 0.027
328.15 K, x2 = 0.9249	1014.98 ± 0.59	1632.4 ± 6.6	0.932 ± 0.024
328.15 K, x2 = 0.9369	1010.86 ± 0.57	1623.5 ± 6.6	0.858 ± 0.022
328.15 K, x2 = 0.9526	1005.16 ± 0.53	1609.4 ± 6.5	0.764 ± 0.02
328.15 K, x2 = 0.9651	1000.35 ± 0.5	1595.8 ± 6.5	0.69 ± 0.018
328.15 K, x2 = 0.9748	996.455 ± 0.52	1583.8 ± 6.5	0.637 ± 0.017
328.15 K, x2 = 0.9906	989.833 ± 0.56	1560.8 ± 6.4	0.551 ± 0.015
338.15 K, x2 = 0.0549	1070.16 ± 0.94	1526.1 ± 6.3	3.37 ± 0.079
338.15 K, x2 = 0.1506	1069.05 ± 0.94	1532.8 ± 6.3	3.198 ± 0.075
338.15 K, x2 = 0.2552	1067.4 ± 0.93	1545 ± 6.3	3.076 ± 0.072
338.15 K, x2 = 0.35	1065.29 ± 0.91	1562 ± 6.4	2.973 ± 0.07
338.15 K, x2 = 0.4496	1062.48 ± 0.89	1581.5 ± 6.5	2.81 ± 0.066
338.15 K, x2 = 0.5	1060.76 ± 0.88	1590.8 ± 6.5	2.69 ± 0.063
338.15 K, x2 = 0.5566	1058.45 ± 0.87	1600.7 ± 6.5	2.516 ± 0.06
338.15 K, x2 = 0.6422	1053.71 ± 0.84	1615.2 ± 6.6	2.177 ± 0.052
338.15 K, x2 = 0.7532	1043.28 ± 0.77	1632.8 ± 6.6	1.63 ± 0.04
338.15 K, x2 = 0.8516	1026.75 ± 0.67	1638.6 ± 6.6	1.11 ± 0.028
338.15 K, x2 = 0.8714	1022.24 ± 0.64	1636.4 ± 6.6	1.009 ± 0.025
338.15 K, x2 = 0.8856	1018.73 ± 0.62	1633.7 ± 6.6	0.938 ± 0.024
338.15 K, x2 = 0.9	1014.9 ± 0.59	1629.8 ± 6.6	0.867 ± 0.022
338.15 K, x2 = 0.9249	1007.65 ± 0.55	1619.7 ± 6.6	0.749 ± 0.02
338.15 K, x2 = 0.9369	1003.86 ± 0.53	1613 ± 6.5	0.695 ± 0.018
338.15 K, x2 = 0.9526	998.592 ± 0.51	1602.2 ± 6.5	0.627 ± 0.017
338.15 K, x2 = 0.9651	994.147 ± 0.54	1591.6 ± 6.5	0.574 ± 0.016
338.15 K, x2 = 0.9748	990.543 ± 0.56	1582 ± 6.5	0.535 ± 0.015
338.15 K, x2 = 0.9906	984.343 ± 0.6	1563.7 ± 6.4	0.473 ± 0.013
